Experimental data published in publication PMC6161602, “Synthesis and characterisation of (Z)-styrylbenzene derivatives as potential selective anticancer agents” (Journal of Enzyme Inhibition and Medicinal Chemistry, 2018).

Experiments:
[1] = tested on: MGC-803 cells; experiment: MTT cell growth inhibition assay, MGC-803; type: cell-based, human; settings: for IC50: MTT, 48 h incubation, MGC-803
Excerpt: (§1) All human cell lines were used in this study. MGC-803 late-stage differentiation gastric cancer cell, A549 lung cancer cell, HepG2 hepatoma cell, AGS gastric cancer cell, BEL-7402 liver cancer cell, HCT-116 colorectal cancer cell, HeLa cervical cancer cell, SGC-7901 early differentiation gastric cancer cell, L-02 normal liver cell, MCF-7 breast cancer cell, and MCF-10A normal breast cell were initially purchased from American Type Culture Collection (ATCC, Manassas, VA, USA). RPMI-1640 media, Dulbecco’s modified Eagle’s medium (DMEM), and foetal bovine serum (FBS) were provided from Gibco Company (Grand Island, NY, USA). The cells were maintained in DMEM or RPMI-1640, supplemented with 10% FBS, 100 IU/mL penicillin and […] (Grand Island, NY, USA), and at 37 °C in a humidified atmosphere containing 5% CO2.
(§2) Cells were plated in 96-well plates at a density of 30–40% to ensure exponential growth throughout the experimental period, and then allowed to adhere for 1 day[21]. Next, the cells were treated with four serial concentrations (1, 10, 50, and 100 µM) of each compound. Taxol, CA-4, and CA-4P (phosphorylated form of CA-4) were used as positive controls. After 48 h incubation, MTT solution was added to each well at a final concentration of 2 mg/mL, and incubated for an additional 4 h. Next, the MTT solution was removed and 150 µL of dimethyl sulphoxide (DMSO)/well was added (Sigma-Aldrich, St Louis, MO, USA). The plates were shaken vigorously at RT to ensure complete solubilisation, and absorption at 492 nm was determined.
(§3) According to standard protocol, preliminary in vitro anti-proliferative activities of the synthesised compounds were evaluated by MTT assay, using nine human cancer cell lines (MGC-803, A549, HepG2, AGS, BEL-7402, HCT116, HeLa, SGC-7901, and MCF-7) and two normal human cell lines (L-02 and MCF-10A), and compared with those of CA-4, CA-4P, and taxol.

[2] = tested on: A549 lung cancer cell; experiment: MTT cell growth inhibition assay, A549; type: cell-based, human
Excerpt: as §1, §2, §3

[3] = tested on: HepG2 hepatoma cell; experiment: MTT cell growth inhibition assay, HepG-2; type: cell-based, human
Excerpt: as §1, §2, §3

[4] = tested on: AGS cells; experiment: MTT cell growth inhibition assay, AGS; type: cell-based, human
Excerpt: as §1, §2, §3

[5] = tested on: BEL-7402 cells; experiment: MTT cell growth inhibition assay, BEL-7402; type: cell-based, human
Excerpt: as §1, §2, §3

[6] = tested on: HCT116 cells; experiment: MTT cell growth inhibition assay, HCT116; type: cell-based, human
Excerpt: as §1, §2, §3

[7] = tested on: L-02 normal liver cell; experiment: MTT cell growth inhibition assay, L-02 (normal); type: cell-based, human; settings: Homo sapiens, 48 h incubation, L-02 normal cells
Excerpt: as §1, §2, §3

[8] = tested on: HeLa cervical cancer cell; experiment: MTT cell growth inhibition assay, HeLa; type: cell-based, human; settings: Homo sapiens, 48 h incubation
Excerpt: as §1, §2, §3

[9] = tested on: SGC-7901 early differentiation gastric cancer cell; experiment: MTT cell growth inhibition assay, SGC-7901; type: cell-based, human; settings: Homo sapiens, 48 h incubation
Excerpt: as §1, §2, §3

[10] = tested on: MCF-10A normal breast cell; experiment: MTT cell growth inhibition assay, MCF-10A (normal); type: cell-based, human; settings: Homo sapiens, 48 h incubation, MCF-10A normal cells
Excerpt: as §1, §2, §3

[11] = tested on: MCF-7 breast cancer cell; experiment: MTT cell growth inhibition assay, MCF-7; type: cell-based, human
Excerpt: as §1, §2, §3

[12] = tested on: BEL-7402 cells; experiment: Analysis of apoptosis by flow cytometry (Annexin V-FITC/PI); type: cell-based, human; settings: BEL-7402, 0.1 µM, 12 h; vehicle 4.7%
Description: Apoptosis was detected using an apoptosis detection kit. BEL-7402 cells were plated in 6-well plates (5.0 × 10^5 cells/well) and incubated at 37 °C overnight. Exponentially growing cells were then incubated with 6h at either 0.01 or 0.1 µM, or taxol at 0.1 µM. Vehicle group was treated with 0.1% DMSO. Following 12 h of incubation, cells were analysed for apoptosis as previously described, using a FACSCalibur flow cytometer with Cell Quest software (Becton-Dickinson, Franklin Lakes, NJ, USA).

[13] = tested on: HeLa cells; parameters: method as in PMID 27887843; settings: printed in Figure 1, previous experiment ref 2; cited from earlier work
[14] = tested on: L-02 cells; parameters: method as in PMID 27887843; settings: L-02, printed in Figure 1, previous experiment ref 2; cited from earlier work

In the case of `CC(=O)O[C@H]1C(=O)[C@@]2(C)[C@H]([C@H](OC(=O)c3ccccc3)[C@]3(O)C[C@H](OC(=O)[C@H](O)[C@@H](NC(=O)c4ccccc4)c4ccccc4)C(C)=C1C3(C)C)[C@]1(OC(C)=O)CO[C@@H]1C[C@@H]2O` [Taxol, reference compound], the IC50 ([1]; Homo sapiens, MGC-803, 48 h) is reported as under 0.06 µM, the IC50 [1] is reported as 0.06 ± 0.01 µM and the “SI IC50 (L-02/MGC-803)” value ([1]; selectivity index, IC50 (L-02)/IC50 (MGC-803)) is reported as over 1666. The IC50 ([2]; Homo sapiens, MTT, 48 h incubation, A549) was 0.44 ± 0.02 µM, the “SI IC50 (L-02/A549)” value ([2]; selectivity index, IC50 (L-02)/IC50 (A549)) was over 227.2 and the IC50 ([3]; Homo sapiens, HepG2, MTT, 48 h incubation, HepG-2) was 0.94 ± 0.03 µM. The “SI IC50 (L-02/HepG-2)” value ([3]; selectivity index, IC50 (L-02)/IC50 (HepG-2)) was over 106.3, the IC50 ([4]; Homo sapiens, MTT, 48 h incubation, AGS) was 0.02 ± 0.01 µM and the “SI IC50 (L-02/AGS)” value ([4]; selectivity index, IC50 (L-02)/IC50 (AGS)) was over 5000. For the same compound, the IC50 ([5]; Homo sapiens, MTT, 48 h incubation, Bel-7402) was 0.09 ± 0.02 µM, the “SI IC50 (L-02/BEL-7402)” value ([5]; selectivity index, IC50 (L-02)/IC50 (BEL-7402)) was over 1111 and the IC50 ([6]; Homo sapiens, HCT-116, MTT, 48 h incubation, HCT116) was 0.03 ± 0.01 µM. For the same compound, the “SI IC50 (L-02/HCT116)” value ([6]; selectivity index, IC50 (L-02)/IC50 (HCT116)) was over 3333, the IC50 [7] was over 100 µM and the IC50 [8] was 13 ± 0.47 µM. For the same compound, the IC50 [9] was over 100 µM, the IC50 [10] was 0.18 ± 0.02 µM and the IC50 ([11]; Homo sapiens, MCF7, MTT, 48 h incubation, MCF-7) was 0.08 ± 0.01 µM. The “SI IC50 (MCF-10A/MCF-7)” value ([11]; selectivity index, IC50 (MCF-10A)/IC50 (MCF-7)) was over 2.2 and the “total apoptotic cells (early + late apoptotic cells)” value [12] was 10.7%.
In the case of `CCOc1ccc(/C=C(\C#N)c2cc(OC)cc(OC)c2)cc1` [Compound 3], the IC50 [13] is listed as 7.7 µM and the IC50 [14] is listed as over 100 µM.
